Measured values as given in patent US9249125B2, “Pyrazole derivatives as p38 MAP inhibitors” (RESPIVERT LIMITED, priority 2012, dated 2016).
pEC50, pIC50: −log10 of the molar value.

Tests used:
Syk = Syk (Homo sapiens (Human), UniProt P43405); experiment: Enzyme binding assay (Kinomescan) Syk; settings: read-out: % Inhibition for kinase binding at 500 nM Syk
Method: (§1) The kinase enzyme binding activities of compounds disclosed herein were determined using a proprietary assay which measures active site-directed competition binding to an immobilized ligand (Fabian, M. A. et al., Nature Biotechnol., 2005, 23:329-336). These assays were conducted by DiscoverX (formerly Ambit; San Diego, Calif.). The percentage inhibition produced by incubation with a test compound is calculated relative to the non-inhibited control.

GSK3α = GSK3α (Homo sapiens (Human), UniProt P49840); experiment: Enzyme binding assay (Kinomescan) GSK3α; settings: read-out: % Inhibition for kinase binding at 500 nM GSK3α
Method: as §1

HCK = HCK (Homo sapiens (Human), UniProt P08631); experiment: Enzyme binding assay (Kinomescan) HCK; settings: read-out: % Inhibition for kinase binding at 500 nM HCK
Method: as §1

p38 MAPKα = p38 MAPKα (Homo sapiens (Human), UniProt Q16539); experiment: Enzyme binding assay (Kinomescan) p38 MAPKα; settings: read-out: % Inhibition for kinase binding at 500 nM p38 MAPKα
Method: as §1

p38 MAPKγ = p38 MAPKγ (Homo sapiens (Human), UniProt P53778); experiment: Enzyme binding assay (Kinomescan) p38 MAPKγ; settings: read-out: % Inhibition for kinase binding at 500 nM p38 MAPKγ
Method: (§2) These assays were conducted by DiscoverX (formerly Ambit; San Diego, Calif.). The percentage inhibition produced by incubation with a test compound is calculated relative to the non-inhibited control.

[1] = system: LPS-induced TNFα release in d-U937 cells; experiment: LPS-induced TNFα release in d-U937 cells; format: cell-based; settings: Homo sapiens, dU937, relative to 10 μg/mL BIRB796, read-out: LPS Induced Release of Cytokine in d-937 Cells TNFα REC50
Procedure, shortened: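 Human monocytic U937 cells were differentiated to macrophage-type cells with PMA (100 ng/mL) for 48 to 72 hr, pre-treated with test compound for 2 hr, then stimulated 4 hr with E. coli O111:B4 LPS (0.1 μg/mL). Supernatant TNFα and IL-8 were measured by sandwich ELISA; REC50 came from concentration-response curves.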

d-U937 cells = experiment: Cell viability: MTT assay; format: cell-based, human; settings: 1 μg/mL
Procedure, shortened: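 Differentiated U937 cells were exposed to compound at 1 or 10 μg/mL either 4 h in 5% FCS RPMI1640 or 24 h in 10% FCS RPMI1640, then given MTT for 1 h, DMSO-solubilised and read at 550 nm. Percent viability loss versus 0.5% DMSO vehicle; apparent gains appear negative.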

B-Raf = B-Raf (Homo sapiens (Human), UniProt P15056); experiment: Enzyme binding assay (Kinomescan) B-Raf; settings: read-out: % Inhibition for kinase binding at 500 nM B-Raf
Method: as §2

[2] = system: Poly I:C-induced ICAM-1 expression in BEAS2B cells; experiment: Poly I:C-induced ICAM-1 expression in BEAS2B cells; format: cell-based; settings: Homo sapiens, BEAS-2B, read-out: Poly IC induced ICAM1 in BEAS2B IC50
Procedure, shortened: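 BEAS2B human bronchial epithelial cells pre-incubated with compound for 2 hr, then transfected with 1 μg/mL poly I:C plus Oligofectamine. At 18 hr, surface ICAM-1 measured by cell-based ELISA (HRP, OD450–655). Signal corrected for cell number by crystal violet OD595.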

[3] = system: LPS-induced airways neutrophilia in mice; experiment: LPS-induced neutrophil accumulation in mice; format: in vivo; settings: Test Substance at 0.2 mg/mL, intra tracheal, dosed 8 hr pre-LPS challenge
Method: Non-fasted Balb/c mice are dosed by the intra tracheal route with either vehicle, or the test substance at the indicated times (within the range 2-8 hr) before stimulation of the inflammatory response by application of an LPS challenge. At T=0, mice are placed into an exposure chamber and exposed to LPS (7.0 mL, 0.5 mg/mL solution in PBS) for 30 min). After a further 8 hr the animals are anesthetized, their tracheas cannulated and BALF extracted by infusing and then withdrawing from their lungs 1.0 mL of PBS via the tracheal catheter. Total and differential white cell counts in the BALF samples are measured using a Neubaur haemocytometer. Cytospin smears of the BALF samples are prepared by centrifugation at 200 rpm for 5 min at RT and stained using a DiffQuik stain system (Dade Behring). Cells are counted using oil immersion microscopy. Data for neutrophil numbers in BAL are shown as mean±S.E.M. (standard error of the mean). The percentage inhibition of neutrophil accumulation is calculated for each treatment relative to vehicle treatment.

Chain of p38 MAPKα (Q16539 whole entry): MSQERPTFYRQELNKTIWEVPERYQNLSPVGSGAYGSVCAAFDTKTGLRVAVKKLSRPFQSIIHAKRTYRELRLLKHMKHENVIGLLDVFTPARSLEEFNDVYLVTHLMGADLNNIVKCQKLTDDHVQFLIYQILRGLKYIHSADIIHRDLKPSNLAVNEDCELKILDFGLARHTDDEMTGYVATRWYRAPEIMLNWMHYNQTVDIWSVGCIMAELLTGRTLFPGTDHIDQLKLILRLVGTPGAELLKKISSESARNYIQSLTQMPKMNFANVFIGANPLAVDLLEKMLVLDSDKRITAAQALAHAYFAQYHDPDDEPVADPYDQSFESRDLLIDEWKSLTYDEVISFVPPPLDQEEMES
Chain of HCK (P08631 22-526): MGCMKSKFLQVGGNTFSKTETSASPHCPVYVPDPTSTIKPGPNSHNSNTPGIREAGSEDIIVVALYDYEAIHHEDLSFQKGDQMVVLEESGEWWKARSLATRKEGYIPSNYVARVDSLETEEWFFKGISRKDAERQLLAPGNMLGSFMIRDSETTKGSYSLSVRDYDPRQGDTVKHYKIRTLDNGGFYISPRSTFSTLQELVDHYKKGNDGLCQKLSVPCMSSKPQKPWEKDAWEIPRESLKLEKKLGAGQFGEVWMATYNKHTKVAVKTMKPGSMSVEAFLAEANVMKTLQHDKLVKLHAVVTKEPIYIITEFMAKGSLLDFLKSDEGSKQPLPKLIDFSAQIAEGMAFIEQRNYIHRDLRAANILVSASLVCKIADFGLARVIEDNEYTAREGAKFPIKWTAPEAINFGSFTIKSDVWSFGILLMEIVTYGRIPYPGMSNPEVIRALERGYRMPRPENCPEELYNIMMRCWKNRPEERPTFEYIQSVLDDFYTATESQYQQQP
Chain of GSK3α (P49840 whole entry): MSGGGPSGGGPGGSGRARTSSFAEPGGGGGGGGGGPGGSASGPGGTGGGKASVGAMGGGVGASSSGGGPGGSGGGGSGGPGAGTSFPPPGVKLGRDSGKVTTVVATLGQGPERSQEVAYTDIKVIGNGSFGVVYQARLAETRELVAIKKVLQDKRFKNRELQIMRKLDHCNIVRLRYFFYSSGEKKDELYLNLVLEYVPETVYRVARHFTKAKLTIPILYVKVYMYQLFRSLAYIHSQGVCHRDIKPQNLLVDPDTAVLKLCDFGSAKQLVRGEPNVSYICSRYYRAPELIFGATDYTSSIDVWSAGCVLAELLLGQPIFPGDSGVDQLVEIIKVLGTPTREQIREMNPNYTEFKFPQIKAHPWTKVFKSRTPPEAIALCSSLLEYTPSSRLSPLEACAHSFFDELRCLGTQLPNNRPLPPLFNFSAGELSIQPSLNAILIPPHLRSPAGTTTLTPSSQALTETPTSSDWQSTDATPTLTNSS
Chain of B-Raf (P15056 whole entry): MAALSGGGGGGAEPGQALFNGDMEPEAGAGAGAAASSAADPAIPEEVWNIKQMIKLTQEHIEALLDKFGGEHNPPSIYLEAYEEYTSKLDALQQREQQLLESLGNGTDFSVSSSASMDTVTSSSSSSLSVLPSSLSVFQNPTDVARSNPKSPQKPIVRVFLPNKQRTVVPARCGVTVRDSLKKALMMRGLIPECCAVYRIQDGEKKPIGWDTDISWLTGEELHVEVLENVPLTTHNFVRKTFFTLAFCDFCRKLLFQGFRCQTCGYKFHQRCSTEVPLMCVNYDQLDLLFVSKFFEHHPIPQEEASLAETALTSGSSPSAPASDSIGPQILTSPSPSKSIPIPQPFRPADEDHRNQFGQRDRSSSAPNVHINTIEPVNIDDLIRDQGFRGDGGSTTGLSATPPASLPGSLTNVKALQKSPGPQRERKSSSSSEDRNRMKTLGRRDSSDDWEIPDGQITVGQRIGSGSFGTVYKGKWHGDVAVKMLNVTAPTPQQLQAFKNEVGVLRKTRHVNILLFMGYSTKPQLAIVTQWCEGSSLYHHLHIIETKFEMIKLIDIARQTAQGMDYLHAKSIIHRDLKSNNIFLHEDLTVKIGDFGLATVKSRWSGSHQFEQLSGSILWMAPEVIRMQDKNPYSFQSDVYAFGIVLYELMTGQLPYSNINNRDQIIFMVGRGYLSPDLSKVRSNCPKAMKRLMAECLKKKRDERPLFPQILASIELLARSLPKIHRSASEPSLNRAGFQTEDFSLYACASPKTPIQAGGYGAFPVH
Chain of p38 MAPKγ (P53778 whole entry): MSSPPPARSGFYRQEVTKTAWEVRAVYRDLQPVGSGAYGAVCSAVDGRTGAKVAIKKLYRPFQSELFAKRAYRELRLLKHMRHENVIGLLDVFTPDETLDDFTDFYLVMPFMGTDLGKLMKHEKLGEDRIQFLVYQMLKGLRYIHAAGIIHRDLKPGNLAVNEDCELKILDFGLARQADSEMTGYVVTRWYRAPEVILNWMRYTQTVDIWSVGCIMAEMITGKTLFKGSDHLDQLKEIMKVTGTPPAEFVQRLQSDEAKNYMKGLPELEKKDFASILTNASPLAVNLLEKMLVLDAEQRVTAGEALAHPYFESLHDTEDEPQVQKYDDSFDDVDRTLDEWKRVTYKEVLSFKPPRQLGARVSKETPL

| SMILES | inhibition at 0.5 µM (Syk) [%] | inhibition at 0.5 µM (GSK3α) [%] | inhibition at 0.5 µM (HCK) [%] | inhibition at 0.5 µM (p38 MAPKα) [%] | inhibition at 0.5 µM (p38 MAPKγ) [%] | pEC50 [1] | MTT Assay Cell viability at time point in d-U937 cells 4 h (d-U937 cells; 4 h) | MTT Assay Cell viability at time point in d-U937 cells 24 h (d-U937 cells; 24 h) | inhibition at 0.5 µM (B-Raf) [%] | pIC50 [2] | % Inhibition of neutrophil accumulation in BAL [3] [%] | Neutrophil numbers in BAL (+/−SEM) [3] |
| --- | --- | --- | --- | --- | --- | --- | --- | --- | --- | --- | --- | --- |
| CNC(=O)c1cc(Oc2ccc(NC(=O)Nc3ccc(Cl)c(C(F)(F)F)c3)cc2)ccn1 [Sorafenib] | 14 | 26 | 22 | 77 | 28 | – | – | – | – | – | – | – |
| COCC(=O)Nc1cc(Oc2ccc(NC(=O)Nc3cc(C(C)(C)C)nn3-c3ccc(C)cc3)c3ccccc23)ccn1 [Reference Compound, N-(4-(4-(3-(3-tert-butyl-1-p-tolyl-1H-pyrazol-5-yl)ureido)naphthalen-1-yloxy)pyridin-2-yl)-2-methoxyacetamide, reference compound] | 95 | 84 | 100 | 100 | – | 9.89 | −ve (−ve and +ve indicate that the value is below and above respectively, the no significant effect threshold, defined as 30% inhibition at 1 μg/mL at the time point indicated.) | +ve (−ve and +ve indicate that the value is below and above respectively, the no significant effect threshold, defined as 30% inhibition at 1 μg/mL at the time point indicated.) | 70 | 8.68 | 60 | 5.6 ± 0.86 ×10^5/mL |
